# What was measured:
# [1] = system: pancreatic islets of MLD-STZ diabetic mice; assay: Histological examination of pancreas, insulitis score; assay type: in vivo, mouse; conditions: CBA/H mice; day 15; FIG. 2D
# Experimental: Histological and immunohistochemical examination of pancreas. Pancreata were fixed in neutral buffered formalin and then embedded in paraffin. The fixed blocks were sectioned (7 μm thick) and haematoxylin and eosin staining was performed to assess the incidence and degree of inflammatory changes. Insulitis scoring was performed as previously described (10, 11) by examining at least 15 islets per mouse and graded in a blinded fashion as follows: 0, no infiltrate; 1, peri-ductal infiltrate; 2, peri-islet infiltrate; 3, intraislet infiltrate; and 4, intraislet infiltrate associated with β-cell destruction. At least 15 islets were counted for each mouse. A mean score for each pancreas was calculated by dividing the total score by the number of islets examined. Insulitis scores (IS) are expressed as mean values±SD. Immunohistochemistry was performed on paraffin-embedded sections of formalin-fixed tissue using a previously described microwave-based method (24). For MIF immunostaining, a polyclonal rabbit anti-MIF IgG and control rabbit IgG were used. The examined area of the islet was outlined, and the percentage of MIF-positive islet cells was measured using quantitative Image Analysis System (Optima 6.5, Media Cybernatics, Silver Springs, Md.).
# MIF tautomerase = target: T1, MIF tautomerase (Homo sapiens, UniProt P14174); conditions: reference (20); cited from earlier work
# T1 sequence (P14174 2-115 limits assumed): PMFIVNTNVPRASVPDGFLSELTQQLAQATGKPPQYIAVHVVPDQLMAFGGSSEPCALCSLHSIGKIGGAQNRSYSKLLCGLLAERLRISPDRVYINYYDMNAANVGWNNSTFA
# [2] = system: spleen mononuclear cells (SMNC); assay: Ex vivo lymphoproliferative response (3H-thymidine incorporation) after in vivo treatment; parameters: species or system mouse; conditions: CBA/H mice treated in vivo; splenocytes day 15 after MLD-STZ; FIG. 3A
# Experimental: (§1) Ex vivo lymphoproliferative response and adhesion assay. Spontaneous proliferation of SMNC was determined by incubation of cells (5×10^5/well) from each individual animal in 96-well microplates with 1 μCi ^3H-thymidine (^3H-TdR, ICN). Incorporated radioactivity was measured after 24 h in a Beckman liquid scintillation counter. The analysis of spontaneous adhesion of SMNC (2.5×10^5/well) to a monolayer of L929 fibroblasts or plastic was performed by using crystal violet assay as previously described (21). The absorbance corresponding to the number of adherent cells, was measured at 570 nm.
# [3] = system: spleen mononuclear cells (SMNC); assay: Ex vivo spontaneous adhesion assay (crystal violet) after in vivo treatment; parameters: species or system mouse; conditions: SMNC from mice treated in vivo, FIG. 3B
# Experimental: as §1
# [4] = system: MLD-STZ-induced diabetic mice; assay: MLD-STZ-induced diabetes, weekly blood glucose, prophylactic treatment; assay type: in vivo, mouse; conditions: CBA/H mice; prophylactic i.p. treatment; FIG. 2B
# Experimental: Diabetes induction and in vivo treatments. Diabetes was induced in adult male mice with multiple subtoxic doses of streptozotocin (MLD-STZ, 40 mg/kg body wt/day i.p. for five consecutive days) as described (21). The impact of polyclonal antibody against MIF was studied by i.p. injection of mice (5-10 per treatment group) with 5 mg/kg of rabbit IgG antibody against mouse […] on days −3, −1, 2 and 5 in relation to the first STZ dose. The effect of ISO-1 was studied by i.p. injection of the drug at a dose of 1 mg/mouse/day, for 14 consecutive days, starting 3 days prior to the first injection with STZ. Control animals received either nonimmune IgG or ISO-1 diluent (DMSO/H2O). Mice were monitored for diabetes by weekly measurement of blood glucose levels using a glucometer (Sensimac®, Imaco, Ludersdorf, Germany). Clinical diabetes was defined by hyperglycemia in non-fasted animals (blood glucose over 11.8 mmol/l).
# TNF-α = assay: Ex vivo TNF-α production, L929 cytolytic bioassay of culture supernatants; assay type: in vivo, mouse; conditions: day 15, 48 h culture, FIG. 4
# Experimental: Cell incubation and determination of pro-inflamatory mediators. Resident peritoneal cells (PC), spleen mononuclear cells (SMNC), and pancreatic islets were isolated from individual anti-MIF IgG-treated, ISO-1-treated or control diabetic mice on day 15 after the first injection of STZ, as well as from normal untreated animals. SMNC (5×10^6/well) prepared by Ficoll gradient centrifugation, resident PC (2.5×10^5/well) collected by peritoneal lavage with cold PBS, or pancreatic islets (150-200 islets/well) prepared by collagenase digestion and density gradient purification as described (22), were incubated in 24-well Limbro culture plates in 1 ml of RPMI-1640 culture medium containing 5% fetal bovine serum (FBS) and cell supernatants were collected after 48 h. Concentration of bioactive TNF-α in culture supernatant was determined as previously described (22) using a cytolytic bioassay with actinomycin D-treated fibrosarcoma cell line L929. Nitrite accumulation, an indicator of NO production, was determined in cell culture supernatant using the Griess reaction (22). The expression of intracellular MIF, IFN-γ, MHC II, or iNOS was determined by slight modification of cell-based ELISA protocol (23). Spleen MNC (5×10^5/well) or PC (2.5×10^5/well), were allowed to adhere to poly-L-lysine-precoated 96-well microplates. Following fixation with 4% paraformaldehyde, and washing with 0.1% Triton X-100 in PBS (T/PBS), endogenous peroxidase was quenched with 1% H2O2 in T/PBS, and reaction blocked for 1 h at 37° C. with 10% FBS in T/PBS. […] After washing, the cells were incubated for 1 h with the corresponding secondary antibody (goat anti-rabbit Ig(H+L)-HRP, goat anti-rat Ig(H+L)-HRP or goat anti-mouse Ig(F(ab′)2-specific)-HRP washed again and incubated for 15 min at room temperature in dark with 50 μl of a solution containing 0.4 mg/ml OPD (Sigma), 11.8 mg/ml Na2HPO4×2H2O, 7.3 mg/ml citric acid and 0.015% H2O2. The reaction was stopped with 3N HCl, and the absorbance was measured in a microplate reader at 492 nm in a Titertek microplate reader (Flow).
# iNOS = assay: Intracellular iNOS expression, cell-based ELISA; assay type: in vivo, mouse; conditions: macrophages from treated animals vs diabetic animals; FIG. 5A
# Experimental: Cell incubation and determination of pro-inflamatory mediators. Resident peritoneal cells (PC), spleen mononuclear cells (SMNC), and pancreatic islets were isolated from individual anti-MIF IgG-treated, ISO-1-treated or control diabetic mice on day 15 after the first injection of STZ, as well as from normal untreated animals. […] Concentration of bioactive TNF-α in culture supernatant was determined as previously described (22) using a cytolytic bioassay with actinomycin D-treated fibrosarcoma cell line L929. Nitrite accumulation, an indicator of NO production, was determined in cell culture supernatant using the Griess reaction (22). The expression of intracellular MIF, IFN-γ, MHC II, or iNOS was determined by slight modification of cell-based ELISA protocol (23). […] After washing, the cells were incubated for 1 h with the corresponding secondary antibody (goat anti-rabbit Ig(H+L)-HRP, goat anti-rat Ig(H+L)-HRP or goat anti-mouse Ig(F(ab′)2-specific)-HRP washed again and incubated for 15 min at room temperature in dark with 50 μl of a solution containing 0.4 mg/ml OPD (Sigma), 11.8 mg/ml Na2HPO4×2H2O, 7.3 mg/ml citric acid and 0.015% H2O2. The reaction was stopped with 3N HCl, and the absorbance was measured in a microplate reader at 492 nm in a Titertek microplate reader (Flow).
# [5] = cells from mice treated in vivo
structure (smiles),measurement,setting,value
"COC(=O)C[C@@H]1CC(c2ccc(O)cc2)=NO1 (racemic) [ISO-1, (S,R)-3-(4-hydroxyphenyl)-4,5-dihydro-5-isoxazole acetic acid methyl ester]",degree of islet infiltration (insulitis),[1],attenuated inflammation of the islets
same,MIF tautomerase and biological activity,MIF tautomerase,inhibits
same,"SMNC proliferation, 3H-thymidine incorporation",[2],25637±2018 cpm
same,spontaneous adhesion of SMNC to plastic,[3],significantly inhibited
same,adhesion of SMNC to fibroblasts,[3]; L929 fibroblasts,significantly inhibited
same,MLD-STZ-induced hyperglycemia (blood glucose levels),[4],remained euglycemic
same,TNF-α production by peritoneal macrophages,TNF-α; [5],down-regulated
same,TNF-α production by spleen MNC,TNF-α; [5],down-regulated
same,TNF-α production by pancreatic islet cells,TNF-α; islets from mice treated in vivo,down-regulated
same,intracellular expression of iNOS in macrophages,iNOS,significantly reduced
